Values joined by “and” are separate entries in the source; they are usually repeats but may differ in a detail not shown here. Identical values can stand only once.
What was measured:
[1] = system: patients with TGCT not amenable to surgery; assay: Phase 3, randomized, placebo-controlled, double-blind study of vimseltinib in patients with TGCT: efficacy; type: in vivo, human
Experimental: This study is a two-part, randomized, double-blind, placebo-controlled study to assess the efficacy and safety of vimseltinib in patients with TGCT not amenable to surgery with no prior anti-CSF1/CSF1R therapy (prior therapy with imatinib or nilotinib allowed). In Part 1, patients (n=123) were randomized two-to-one to receive either 30 mg twice weekly of vimseltinib (n=83) or placebo (n=40) for 24 weeks. Vimseltinib or matching placebo was administered orally each week on day 1 and day 5 (±1 day) at approximately the same time of day on an empty stomach, with ≥24 hours between doses. An MRI of the affected joint was performed at screening, cycle 4 day 1 (week 13; ±7 days), and at the end of Part 1. Part 2 is an ongoing open-label study, in which patients from both the vimseltinib and placebo arms receive treatment with vimseltinib.
The primary endpoint of the study is the objective response rate (ORR) at Week 25 as measured by Response Evaluation Criteria in Solid Tumors (RECIST) version 1.1 by blinded independent radiologic review (IRR). Key secondary endpoints included the objective response rate at Week 25 by IRR per tumor volume score (TVS), active range of motion (ROM) at Week 25, PROMIS physical function (PROMIS-PF) score, worst stiffness numeric rating scale (NRS) score at Week 25, EQ-visual analogue scale (EQ-VAS) score at Week 25, and greater than or equal to 30% reduction in Brief Pain Inventory (BPI) in worst pain and less than 30% increase in narcotic use (BPI-30) at Week 25. Other secondary endpoints included duration of response (DOR) and safety.
Eligibility Criteria: Eligible patients were aged ≥18 years with a histologically confirmed diagnosis of TGCT for which surgical resection would potentially cause worsening functional limitation or severe morbidity. Patients had at least 1 measurable lesion ≥2 cm using Response Evaluation Criteria in Solid Tumors version 1.1 (RECIST v1.1), as assessed from magnetic resonance imaging (MRI) by a central radiologist.
Patients were excluded for receiving previous systemic therapy targeting CSF1 or CSF1R including vimseltinib; previous therapy with imatinib and/or nilotinib was allowed. Patients who received any therapy for TGCT (including investigational therapy) during screening, had major surgery 14 days prior to the first dose of study drug, or participated in a non-TGCT investigational drug study within 30 days of screening were also excluded.
Tumor volume score (TVS) is a semiquantitative magnetic resonance imaging scoring system that describes tumor mass. It is based on 10% increments of the estimated volume of the maximally distended involved synovial cavity or tendon sheath. Scores ranged from 0 to 10, and a tumor that was equal in volume to that of a maximally distended synovial cavity or tendon sheath was scored a 10; a score of 0 indicated no evidence of a tumor.
Complete response denoted disappearance of all tumor(s). Partial response was at least a 50% reduction from baseline in TVS. Progressive disease was at least a 30% increase in TVS from baseline. Stable disease was neither a sufficient decrease to qualify for partial response nor sufficient increase to qualify for progressive disease, taking the nadir as a reference. Response was considered not evaluable if the TVS could not be assessed for reasons such as inadequate or missing imaging.
Active range of motion (ROM; in degrees) was assessed using a goniometer and was normalized using a reference standard provided by the American Medical Association to compute the relative active ROM. In joints where more than one motion was measured, the motion with the smallest relative ROM value (worst) was used for evaluating subsequent changes in relative active ROM.
Response for PROMIS-PF, worst stiffness NRS, and EQ-VAS was a change from baseline ≥3, ≤−2, and ≥7, respectively. BPI worst pain response was defined as a ≥30% reduction in worst pain without a ≥30% increase in narcotic analgesic use. […]

[2] = system: patients with TGCT; conditions: human, in vivo
Experimental: The safety population includes patients who received at least 1 dose of study drug. Severity was assessed by the investigator according to the toxicity grade described in the National Cancer Institute CTCAE v4.03 (grade 1 [mild] to grade 5 [death]). Time denotes the earliest start date of the worst grade for each TEAE; if the highest grade TEAE occurred in the first 12 months of treatment, lower grade events that occurred after 12 months were not captured in this figure. Key: AST, aspartate aminotransferase; COVID-19, coronavirus disease 2019; CPK, creatine phosphokinase; CTCAE v4.03, Common Terminology Criteria for Adverse Events version 4.03; LDH, lactate dehydrogenase; TEAE, treatment-emergent adverse event.
This is a Phase 1/2 open-label, multicenter study evaluating the safety and efficacy of vimseltinib in patients with TGCT. In Phase 1, 32 patients enrolled in three cohorts across multiple doses. In Phase 2, 66 patients enrolled in two cohorts at the recommended Phase 2 dose of 30 mg twice weekly: Cohort A (n=46) in TGCT patients with no prior anti-CSF1/CSF1R therapy (prior therapy with imatinib or nilotinib allowed); and Cohort B (n=20) in TGCT patients with prior anti-CSF1/CSF1R therapy (prior therapy with imatinib or nilotinib alone not eligible).

[3] = 30 mg twice weekly, ITT N=83, Week 25
[4] = 30 mg twice weekly, ITT, Week 25

SMILES: Cc1nc(-c2cnc(NC(C)C)n(C)c2=O)ccc1Oc1ccnc(-c2cnn(C)c2)c1 [Vimseltinib, 2-(isopropylamino)-3-methyl-5-(6-methyl-5-((2-(1-methyl-IH-pyrazol-4-yl)pyridin-4-yl)oxy)pyridin-2-yl)pyrimidin-4(3H)-one]
- clinical benefit (CR+PR+SD), best percentage change in target lesions by IRR ([1]; 30 mg twice weekly, FIG. 7A): Nearly all patients receiving vimseltinib experienced clinical benefit
- BPI-30 Response in Worst Pain [1, 3]: 40 (48) n (%)
- CFB in EQ-VAS at Week 25, LS Mean [1, 3]: 13.5
- CFB in Worst Stiffness NRS at Week 25, LS Mean [1, 3]: −2.1
- CR by IRR per TVS [1, 3]: 4 (5%) n (%)
- Complete Response (CR) by IRR per RECIST 1.1 [1, 3]: 4 (5%) n (%)
- ORR at Week 25 by IRR per RECIST 1.1 [1, 3]: 33 (40%) n (%)
- ORR at Week 25 by IRR per RECIST v1.1 [1, 3]: 40%
- PR by IRR per TVS [1, 3]: 52 (63%) n (%)
- Partial Response (PR) by IRR per RECIST 1.1 [1, 3]: 29 (35%) n (%)
- Stable disease (SD) by IRR per RECIST 1.1 [1, 3]: 42 (51%) n (%)
- CFB in EQ-VAS at Week 25, Difference in LS Mean vs placebo [1, 4]: 7.4
- CFB in Worst Stiffness NRS at Week 25, Difference in LS Mean vs placebo [1, 4]: −1.8
- Difference in BPI-30 Response in Worst Pain vs placebo (95% CI) [1, 4]: 26% and 26 (4, 42) %
- Difference in ORR (vimseltinib vs placebo) by IRR per TVS [1, 4]: 67%
- Difference in ORR (vimseltinib vs. placebo) by IRR per RECIST 1.1 [1, 4]: 40%
- response rate in active ROM at Week 25 ([1]; 30 mg twice weekly, N=79): 48%
- response rate in PROMIS-PF at Week 25 ([1]; 30 mg twice weekly, N=79, response = change from baseline ≥3): 43%
- response rate in EQ-VAS at Week 25 ([1]; 30 mg twice weekly, N=79, response = change from baseline ≥7): 37%
- difference in response rate in EQ-VAS vs placebo ([1]; 30 mg twice weekly, Week 25): 12%
- difference in response rate in PROMIS-PF vs placebo ([1]; 30 mg twice weekly, Week 25): 18%
- difference in response rate in Worst Stiffness NRS vs placebo ([1]; 30 mg twice weekly, Week 25): 24%
- difference in response rate in active ROM vs placebo ([1]; 30 mg twice weekly, Week 25): 28%
- median duration of response by IRR per RECIST v1.1 ([1]; 30 mg twice weekly, responders): not reached
- median duration of response by IRR per TVS ([1]; 30 mg twice weekly, responders): not reached
- response rate in Worst Stiffness NRS at Week 25 ([1]; 30 mg twice weekly, response = change from baseline ≤−2): 39%
- BPI-30 response rate in Worst Pain at Week 25 ([1]; 30 mg twice weekly, ≥30% reduction in BPI worst pain NRS and <30% increase in narcotic use): 48%
- functional and symptomatic improvement across active ROM, PROMIS-PF, worst stiffness NRS, BPI worst pain ([1]; Week 25, versus placebo, FIG. 8): More patients experienced improvement in multiple measures
- tumor responses, updated results ([1]; after 6 months): sustained tumor responses
- Grade 3/4 TEAE eczema [2]: 10%
- Grade 3/4 TEAE increased blood CPK [2]: 35%
- Grade 3/4 TEAE increased blood creatine phosphokinase (CPK) [2]: 48%
- grade of the majority of TEAEs [2]: grade 1 or 2
- onset of the majority of the most severe events [2]: ≤ 12 months
- tolerability [2]: well-tolerated
- tolerability, longer follow-up [2]: continued to be well tolerated with a manageable safety profile
- treatment discontinuation due to TEAEs [2]: 9%
